Bounds are passed on as bounds.

One experiment deals with HT29 colon cancer cells. Kind of experiment: Cell growth inhibition, Sulforhodamine B assay, HT29. Format: cell-based. The note with it: Homo sapiens, HT-29, 120 h, 5 days culture, SRB assay, read-out: Cell Line GI50 Range HT29.
A further experiment has as its target T1, Aurora B (Homo sapiens, UniProt Q96GD4).
T1 construct: purchased Invitrogen PV3970
The experiment can be described thus: Aurora B inhibition assay (Z-Lyte). Format: biochemical. The note with it: 28 nM Aurora B, 128 μM ATP; read-out: IC50 Ranges Aurora B. The method, then: Aurora B inhibition was determined using the Z-Lyte assay kit from Invitrogen. The assay was performed using the recommended manufacturer's instructions with 128 μM ATP and 28 nM Aurora B (Invitrogen cat #PV3970). The % inhibition values were determined according to the manufacturer's directions and IC50 values were obtained using a non-linear 4 point logistic curve fit (XLfit4, IDBS)

In experiment [1] the test system is Ovarian TICs, 2393A ovarian. The experiment can be described thus: Ovarian tumor-initiating cell growth inhibition (Alamar Blue). Format: cell-based. The conditions noted are these: 144 h, 6 days, read-out: GI50 range 2393A ovarian.
For experiment [2], the system named is OVCAR-3 ovarian cancer cells. The experiment can be described thus: Cell growth inhibition, Sulforhodamine B assay, OVCAR-3. Format: cell-based. The conditions noted are these: Homo sapiens, 120 h, 5 days culture, SRB assay, read-out: Cell Line GI50 Range OVCAR-3. On the technique in general: In SRB staining, fixed cells bind dye roughly in proportion to their protein.

Experiment [3] concerns HCT116 colon cancer cells. Kind of experiment: Cell growth inhibition, Sulforhodamine B assay, HCT116. Format: cell-based. The note with it: Homo sapiens, HCT-116, 120 h, 5 days culture, SRB assay, read-out: Cell Line GI50 Range HCT116.
Experiment [4] relates to Colon tumor initiating cells (TICs), 12 colon. The experiment can be described thus: Colon tumor-initiating cell growth inhibition (Alamar Blue). It counts as cell-based. The note with it: 216 h, 9 days, read-out: GI50 range 12 colon. In general terms: The colour change of resazurin is a common sign of viable cells or microbes.
From the text: Materials and Methods: Non-tissue or tissure cultured treated T-75 flask and 96-well plates were purchased from VWR. Vitamin B-27 supplement, MEM NEAA (minimum essential medium non essential amino acids), sodium pyruvate, L-glutamine, N2 supplement, penicillin-streptomycin and fungizone/amphotericin B were obtained from Invitrogen. Lipid mixture, heparin and EGF were purchased from Sigma; bFGF from BD Biosciences. Colon tumor initiating cells (TICs) were routinely maintained using non-tissue cultured treated T-75 flasks in DMEM:F12 medium containing 0.2XB-27 supplement, 4 ug/ml heparin, 1XMEM NEAA, 1× sodium pyruvate, 1 mM glutamine, 10 pg/ul bFGF, 20 pg/ul EGF, 1×N2 supplement, lipid mixture, penicillin-streptomycin and fungizone/amphotericin B. Ovarian TICs were routinely maintained using tissue cultured treated T-75 flasks in DMEM:F12 medium containing 1XB-27 supplement, 4 ug/ml heparin, 20 pg/ul bFGF, 20 pg/ul EGF and penicillin-streptomycin.
Compounds described herein were dissolved in DMSO and further diluted in cell culture medium for GI50 determination. Colon TICs were trypsinized and seeded into non-tissue cultured treated 96-well plates with 4,000 cells/well. After 24 h, compound was added into the cell culture at different concentrations, and the final concentration of DMSO was adjusted to 0.1%. Cells were then cultured at 37° C. for 9 days. Ovarian TICs were trypsinized and seeded into tissue cultured treated 96-well plates with 1,000 cells/well. After 24 h, compound was added into the cell culture at different concentrations, and the final concentration of DMSO was adjusted to 0.1%. Cells were then cultured at 37° C. for 6 days. Cell viability was assessed by Alamar Blue assay: 10 ul of Alamar Blue was added into each well. After 4 hours incubation at 37° C., fluorescence was recorded at excitation 544 and emission 590. GI50 (Growth inhibition) was calculated using GraphPad Prism 4.0 software.
Experiment [5] relates to MDA-MB-468 breast cancer cells. Kind of experiment: Cell growth inhibition, Sulforhodamine B assay, MDA-MB-468. Format: cell-based. The conditions noted are these: Homo sapiens, 120 h, 5 days culture, SRB assay, read-out: Cell Line GI50 Range MDA-MB-468.
The target in a further experiment is T2, human PLK4 (Homo sapiens, UniProt O00444).
T2 construct: amino terminal GST fusion of residues 1-391 of human PLK4; made in house; host or cells: E. coli
T2 sequence (O00444 1-391): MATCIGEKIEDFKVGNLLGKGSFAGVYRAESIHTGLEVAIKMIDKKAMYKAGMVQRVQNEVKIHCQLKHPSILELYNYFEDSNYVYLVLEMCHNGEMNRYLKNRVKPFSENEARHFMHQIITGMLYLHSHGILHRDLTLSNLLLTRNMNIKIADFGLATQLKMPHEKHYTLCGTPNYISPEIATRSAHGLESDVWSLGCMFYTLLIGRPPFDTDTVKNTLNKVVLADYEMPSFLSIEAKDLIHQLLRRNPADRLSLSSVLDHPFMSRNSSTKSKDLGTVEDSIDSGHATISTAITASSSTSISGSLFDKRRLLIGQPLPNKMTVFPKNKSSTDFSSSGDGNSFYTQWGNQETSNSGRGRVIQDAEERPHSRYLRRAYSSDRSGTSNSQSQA
The experiment can be described thus: PLK4 inhibition assay (indirect ELISA). It counts as biochemical. The note with it: GST-PLK4 4 nM, 15 μM ATP; read-out: IC50 Ranges PLK4. The method, boiled down: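 Compounds were tested either at a single 10 μM dose or across 10-point titrations (typically 0.5 to 0.001 μM), preincubated 15 min with 4 nM GST-PLK4 (human 1-391, dephosphorylated) before 15 μM ATP was added. MBP substrate phosphorylation over 30 min, pH 7.5 HEPES/MgCl2 buffer, read by HRP/TMB ELISA (450 nm). % inhibition vs. high-activity control; IC50 by logistic fit.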
In general terms: ELISA stands for enzyme-linked immunosorbent assay.

For experiment [6], the system named is MDA-MB-231 breast cancer cells. Kind of experiment: Cell growth inhibition, Sulforhodamine B assay, MDA-MB-231. It counts as cell-based. The note with it: Homo sapiens, 120 h, 5 days culture, SRB assay, read-out: Cell Line GI50 Range MDA-MB-231.
Another experiment concerns the target T3, human TTK (Homo sapiens, UniProt P33981).
T3 construct: amino terminal GST fusion of full length human TTK; purchased Invitrogen
T3 sequence (P33981 1-857): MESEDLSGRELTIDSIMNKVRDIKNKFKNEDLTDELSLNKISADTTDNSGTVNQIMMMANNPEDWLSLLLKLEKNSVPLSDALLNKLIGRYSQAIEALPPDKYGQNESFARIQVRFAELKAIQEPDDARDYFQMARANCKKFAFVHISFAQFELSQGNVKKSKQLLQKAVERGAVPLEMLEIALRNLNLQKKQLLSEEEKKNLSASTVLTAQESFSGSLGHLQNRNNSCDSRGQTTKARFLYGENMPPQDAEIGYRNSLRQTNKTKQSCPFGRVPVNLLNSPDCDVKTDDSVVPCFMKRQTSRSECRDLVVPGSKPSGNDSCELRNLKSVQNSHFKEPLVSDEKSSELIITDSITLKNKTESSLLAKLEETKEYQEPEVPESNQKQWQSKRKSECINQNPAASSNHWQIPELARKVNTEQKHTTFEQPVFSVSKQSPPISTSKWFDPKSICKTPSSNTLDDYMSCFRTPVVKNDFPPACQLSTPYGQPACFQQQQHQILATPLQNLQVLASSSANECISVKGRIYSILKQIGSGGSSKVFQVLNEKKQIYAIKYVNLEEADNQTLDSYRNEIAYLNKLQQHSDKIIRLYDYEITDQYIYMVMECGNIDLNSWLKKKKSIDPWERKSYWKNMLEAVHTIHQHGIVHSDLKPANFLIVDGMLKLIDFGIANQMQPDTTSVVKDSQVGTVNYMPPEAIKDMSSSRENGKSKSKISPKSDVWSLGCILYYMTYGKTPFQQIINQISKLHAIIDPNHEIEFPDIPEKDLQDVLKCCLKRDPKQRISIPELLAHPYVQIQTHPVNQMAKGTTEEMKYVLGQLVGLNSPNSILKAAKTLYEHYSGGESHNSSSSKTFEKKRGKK
The experiment can be described thus: TTK inhibition assay (indirect ELISA). Format: biochemical. The note with it: GST-TTK 0.68 nM, 16 μM ATP; read-out: IC50 Ranges TTK.

For experiment [7], the system named is PA-1 ovarian cancer cells. The experiment can be described thus: Cell growth inhibition, Sulforhodamine B assay, PA-1. It counts as cell-based. The note with it: 120 h, 5 days culture, SRB assay, read-out: Cell Line GI50 Range PA-1.

T1 sequence (Q96GD4 whole entry): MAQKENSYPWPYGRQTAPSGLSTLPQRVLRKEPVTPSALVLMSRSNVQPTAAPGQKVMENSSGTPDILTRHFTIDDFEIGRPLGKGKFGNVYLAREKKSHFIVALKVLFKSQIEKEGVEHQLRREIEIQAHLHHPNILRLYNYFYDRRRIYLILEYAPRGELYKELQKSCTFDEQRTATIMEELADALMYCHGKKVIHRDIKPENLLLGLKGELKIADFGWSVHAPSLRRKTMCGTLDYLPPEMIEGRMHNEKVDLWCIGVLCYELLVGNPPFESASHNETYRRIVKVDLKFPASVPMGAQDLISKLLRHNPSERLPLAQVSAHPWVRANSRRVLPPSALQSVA

As usually defined, the GI50 is the concentration giving 50% growth inhibition. For orientation: IC50 means the midpoint of a concentration-inhibition curve. Take `COCCN1CCC(Oc2ccc(-c3n[nH]c4ccc(NC(=O)C(c5ccsc5)N5CCCC5)cc34)cc2)CC1` (stereo not drawn) [Example A175, N-(3-(4-((1-(2-methoxyethyl)piperidin-4-yl)oxy)phenyl)-1H-indazol-5-yl)-2-(pyrrolidin-1-yl)-2-(thiophen-3-yl)acetamide]: the GI50 (in the experiment with HT29 colon cancer cells; in experiment [1]; in [2]; in experiment [3]; in experiment [4]; in experiment [5]) was at most 5 µM throughout. Further, the GI50 in experiment [6] and in [7] was at most 5 µM throughout. In addition, the IC50 on Aurora B, on human PLK4 and on human TTK was at most 5 µM in each case.
For the compound `CN1CCC(Oc2ccc(-c3n[nH]c4ccc(NC(=O)C(c5cccs5)N5CCCC5)cc34)cc2)CC1` (stereo not drawn) [Example A91, N-(3-(4-((1-methylpiperidin-4-yl)oxy)phenyl)-1H-indazol-5-yl)-2-(pyrrolidin-1-yl)-2-(thiophen-2-yl)acetamide], the GI50 (in the experiment with HT29 colon cancer cells; in experiment [1]; in [2]; in experiment [3]; in experiment [4]; in [5]) was at most 5 µM in each case. The GI50 in [6] and in [7] was at most 5 µM in each case. In addition, the IC50 on Aurora B, on human PLK4 and at human TTK was at most 5 µM each time.
Consider `CC[C@@H](NC(=O)c1ccc2[nH]nc(-c3ccc(OC4CCN(C)CC4)cc3)c2c1)c1cccc(OC)c1` [Example A174, (R)—N-(1-(3-methoxyphenyl)propyl)-3-(4-((1-methylpiperidin-4-yl)oxy)phenyl)-1H-indazole-5-carboxamide], for which the concentration for 50% growth inhibition (GI50) (in the experiment on HT29 colon cancer cells; in experiment [1]; in experiment [2]; in experiment [3]; in experiment [4]; in experiment [5]) was at most 5 µM each time. The GI50 in [6] and in [7] was at most 5 µM throughout. For the same compound, the half-maximal inhibitory concentration (IC50) at Aurora B, at human PLK4 and at human TTK was at most 5 µM each time.
Take `O=C(NC(c1ccccc1)C1CC1)c1ccc2[nH]nc(-c3ccc(OC4CCN(C5COC5)CC4)cc3)c2c1` (stereo not drawn) [Example A157]: the GI50 (with HT29 colon cancer cells; in experiment [1]; in experiment [2]; in experiment [3]; in [4]; in experiment [5]) was at most 5 µM in each case. The GI50 in [6] and in experiment [7] was at most 5 µM each time. For the same compound, the IC50 on Aurora B, on human PLK4 and on human TTK was at most 5 µM throughout.
With `CN1CCC(Oc2ccc(-c3n[nH]c4ccc(C(=O)NC(c5ccsc5)C5CCCC5)cc34)cc2)CC1` (stereo not drawn) [Example A110, N-(cyclopentyl(thiophen-3-yl)methyl)-3-(4-((1-methylpiperidin-4-yl)oxy)phenyl)-1H-indazol-5-carboxamide], the GI50 (in the experiment on HT29 colon cancer cells; in [1]; in experiment [2]; in experiment [3]; in experiment [4]; in [5]) was at most 5 µM in each case. The GI50 in experiment [6] and in experiment [7] was at most 5 µM in each case. The concentration for half-maximal inhibition (IC50) on Aurora B, at human PLK4 and on human TTK was at most 5 µM each time.
`CC[C@@H](NC(=O)c1ccc2[nH]nc(-c3ccc(OC4CCN(CCOC)CC4)cc3)c2c1)c1ccccc1Cl` [Example A128, (R)—N-(1-(2-chlorophenyl)propyl)-3-(4-((1-(2-methoxyethyl)piperidin-4-yl)oxy)phenyl)-1H-indazole-5-carboxamide]: the concentration for 50% growth inhibition (GI50) (in the experiment on HT29 colon cancer cells; in experiment [1]; in experiment [2]; in experiment [3]; in experiment [4]; in experiment [5]) was at most 5 µM throughout. Moreover, the GI50 in [6] and in [7] was at most 5 µM each time. Moreover, the IC50 at Aurora B, at human PLK4 and at human TTK was at most 5 µM throughout.
In the case of `CN1CCC(Oc2ccc(-c3n[nH]c4ccc(C(=O)NC(c5ccccc5)C5CCCCC5)cc34)cc2)CC1` (stereo not drawn) [Example A170, N-(cyclohexyl(phenyl)methyl)-3-(4-((1-methylpiperidin-4-yl)oxy)phenyl)-1H-indazole-5-carboxamide], the GI50 (with HT29 colon cancer cells; in [1]; in [2]; in [3]; in experiment [4]; in [5]) was at most 5 µM in each case. The GI50 in experiment [6] and in experiment [7] was at most 5 µM in each case. The IC50 on human PLK4 and at human TTK was at most 5 µM throughout.
As for `COC[C@@H](NC(=O)c1ccc2[nH]nc(-c3ccc(OC4CCN(C)CC4)cc3)c2c1)c1ccccc1` [Example A173, (S)—N-(2-methoxy-1-phenylethyl)-3-(4-((1-methylpiperidin-4-yl)oxy)phenyl)-1H-indazole-5-carboxamide], the GI50 with HT29 colon cancer cells is at most 5 µM; in [1], at most 5 µM; in [2] it was 5 to 20 µM; in experiment [3] it was at most 5 µM; in experiment [4], at most 5 µM; in experiment [5] it was at most 5 µM. Besides, the GI50 in experiment [6] and in [7] was at most 5 µM in each case. For the same compound, the IC50 at human PLK4 and at human TTK was at most 5 µM in each case.
As for `CN1CCC(Oc2ccc(-c3n[nH]c4ccc(C(=O)NC(c5ccccc5)C5CC5)cc34)cc2Cl)CC1` (stereo not drawn) [Example A188, 3-(3-chloro-4-((1-methylpiperidin-4-yl)oxy)phenyl)-N-(cyclopropyl(phenyl)methyl)-1H-indazole-5-carboxamide], the 50% inhibitory concentration (IC50) at Aurora B, at human PLK4 and at human TTK was at most 5 µM each time. The GI50 in [1], in experiment [2], in experiment [3], in experiment [4], in [5] and in experiment [6] was at most 5 µM each time. The GI50 in [7] is at most 5 µM.

Source of the values: patent US20140051679A1, “KINASE INHIBITORS AND METHOD OF TREATING CANCER WITH SAME” (UNIVERISTY HEALTH NETWORKS, priority 2011, published 2014).
